{
  "source": "paper PMC7280531",
  "about": "“A PROTAC peptide induces durable β-catenin degradation and suppresses Wnt-dependent intestinal cancer” (Cell Discovery, 2020)",
  "key": {"[1]": {"test_system": "CRC patient-derived organoids", "experiment": "CRC patient-derived tumor organoid culture", "assay_type": "cell-based, human", "conditions": "10 μM", "description": "Fig. 6 xStAx-VHLL restrains the survival of CRC patient-derived organoids. a Twelve CRC patient-derived organoids, numbered from C-01 to C-12, were treated with DMSO and 10 μM xStAx-VHLL for 4 days. The organoids survival rate of each group was calculated at day 4. b The C-08 organoids were treated with DMSO and 10 μM xStAx-VHLL for 4 days. The trypan blue staining at day 4 indicated the dead organoids. Scale bar = 100 μm. c The percentage of survived C-08 organoids was calculated each day after xStAx-VHLL treatment. d The C-08 organoids were treated with DMSO or 10 μM xStAx-VHLL for 48 h and then harvested for immunoblotting. Relative β-catenin protein levels were quantified. e The C-08 organoids were treated with DMSO and 10 μM xStAx-VHLL for 4 days. Scale bar = 100 μm. f The percentage of survived organoids in C-11 group was calculated each day after xStAx-VHLL treatment. g The C-11 organoids were treated with DMSO or 10 μM xStAx-VHLL for 48 h and then harvested for immunoblotting. Relative β-catenin protein levels were quantified. The relative band intensity was quantified with ImageJ and normalized to GAPDH levels.\nCRC patient tumor tissues were washed with cold HBSS. After removing the muscle tissue, the epithelial tumor tissues were cut into small pieces and vigorously suspended. Then the tissue suspension was centrifuged (3 min at 300–400 g) and tumor fraction was enriched at the bottom. Next, the tumor fraction was embedded in Matrigel (BD Biosciences) and seeded on 24-well plates with the culture medium, which includes Advanced DMEM/F12 supplemented with Penicillin/Streptomycin, GlutaMAX-I, N2, B27, N-acetylcysteine (Sigma-Aldrich), CHIR-99021 (5 μM, Selleck), A-83–01 (0.5 μM, Cayman), SB202190 (10 μM, Selleck), gastrin (1 nM, Tocris), Y27632 (10 μM, Enzo), PEG2 (2.5 μM, Selleck), nicotinamide (10 mM, Sigma-Aldrich), EGF (50 ng/mL, Invitrogen), Noggin (100 ng/mL, R&D) and R-spondin1 (500 ng/mL)."}, "[2]": {"test_system": "LoVo cells", "experiment": "Tumor formation in nude mice from pretreated LoVo cells", "assay_type": "in vivo, BALB/C nude mice", "description": "Next, to examine the influence of the peptides on tumor formation, 3 × 10^6 LoVo cells were pretreated with each peptide at 50 μM for 24 h, followed by subcutaneous injection into BALB/C nude mice. After 3 weeks when tumors were visible, the mice were sacrificed for comparison of subcutaneous tumors among different groups.\nLoVo cells cultured were pretreated with DMSO pr peptides (50 μM) for 24 h. Then the cells were digested with trypsin and centrifuge (3 min at 300–400 g). Cell pellets were washed with cold PBS three times and the cell number was counted. The BALB/C nude mice were subcutaneously injected with 3 × 10^6 cells. Three weeks later, the nude mice were sacrificed and dissected for tumors. Tumor weight was quantified."}, "[3]": {"test_system": "wild-type organoids", "experiment": "Wild-type mouse intestinal organoid culture", "assay_type": "cell-based", "conditions": "10 μM peptides", "description": "Fig. 5 xStAx-VHLL inhibits the growth of wild-type and APC^−/− organoids. a Wild-type organoids were cultured with 10 μM peptides for 4 days. The trypan blue staining at day 4 indicated the dead organoids. Scale bar = 100 μm. […] Relative β-catenin and cleaved caspase3 protein levels were quantified. e Wild-type organoids were cultured with 10 μM peptides for 3 h and harvested for qPCR analysis of Wnt target genes. f APC^−/− organoids were cultured with 50 μM peptides for 4 days. The trypan blue staining at day 4 indicated the dead organoids. Scale bar = 100 μm. […] Relative β-catenin and cleaved caspase3 protein levels were quantified. The relative band intensity was quantified with ImageJ and normalized to GAPDH levels.\nMouse intestinal crypts isolation and organoid culture were performed as previously described. Briefly, mouse intestine was cut longitudinally and washed three times with cold PBS. Villi were carefully scraped away and small pieces (5 mm) of intestine were incubated in 0.5 M EDTA in PBS for 40 min on ice. These pieces were then vigorously suspended in cold PBS and the mixture was passed through 70 μm cell strainer (BD Biosciences). The crypt fraction was enriched through centrifugation (3 min at 300–400 g). Then the crypts were embedded in Matrigel (BD Biosciences) and seeded on 48-well or 24-well plates. The intestinal organoid culture medium consists of Advanced DMEM/F12 supplemented with Penicillin/Streptomycin, GlutaMAX-I, N2, B27 and N-acetylcysteine (Sigma-Aldrich) and combination of growth factors including EGF (50 ng/mL, Invitrogen), Noggin (100 ng/mL, R&D) and R-spondin1 (500 ng/mL). The organoids were treated with proper dilution of peptides in the medium.\nSupplementary Fig. S7. xStAx-VHLL restricts Lgr5+ intestinal stem cell\npopulation and cell viability in intestinal organoids.\nThe organoids derived from the small intestine of Lgr5-GFP mice were treated with\n10 μM peptides for 36 h and then collected for CytoFLEX flow cytometry to count\nLgr5+ intestinal stem cells (a) or viable cells (b). Data from 3 independent\n(1 picture or pasted object on this page, not shown here)"}, "[4]": {"test_system": "β-catenin", "experiment": "β-catenin immunoblotting in colorectal cancer cells (HCT116, SW480, LoVo)", "assay_type": "cell-based", "conditions": "for β-catenin protein level, MSAB versus xStAx-VHLL: 50 μM xStAx-VHLL", "description": "Relative\nβ-catenin protein level was quantified with ImageJ and normalized to GAPDH. Data […]\n(b) LoVo cells were treated with 50 μM xStAx (xS), 50 μM\nimmunoblotting. (c, d) LoVo (c) and SW480 (d) cells were treated with different"}, "[5]": {"test_system": "LoVo cells", "experiment": "Cell proliferation assay (CCK-8), LoVo cells", "assay_type": "cell-based", "conditions": "6 days", "description": "Equal number of cells (8000–10,000 cells) were seeded in the 24-well plates and then subjected to different treatments. The cell numbers were counted every 24 h with the CCK-8 cell counting kit (Dojindo Molecular Technologies) according to manufacturer’s instructions."}, "[6]": {"test_system": "APC^−/− organoids", "experiment": "APC^−/− mouse intestinal organoid culture", "assay_type": "cell-based"}, "[7]": {"conditions": "Lgr5-GFP organoids, 36 h, flow cytometry"}, "[8]": {"conditions": "50 μM peptides, 24 h, immunoblot"}},
  "note": "Where a SMILES comes first, the peptide text is derived from it. Bridges are numbered along the chain shown (N, C = ends). [ ]: non-standard residue; d: D form. S5 = C=CCCC[C@](C)(N)C(=O)O; Ahx = NCCCCCC(=O)O",
  "data": [
    {"smiles": "CC[C@H](C)[C@@H]1NC(=O)[C@@](C)(NC(=O)[C@H](CCCNC(=N)N)NC(=O)[C@@H]2CCCN2C(=O)[C@H](Cc2c[nH]c3ccccc23)NC(=O)[C@H](CCCNC(=N)N)NC(=O)[C@H](CCCNC(=N)N)NC(C)=O)CCCC=CCCC[C@@](C)(C(=O)N[C@@H](Cc2c[nH]cn2)C(=O)N[C@H](C(=O)N[C@@H](CCCNC(=N)N)C(=O)N[C@@H](CCCNC(=N)N)C(=O)N[C@H](C(=O)N[C@@H](Cc2c[nH]c3ccccc23)C(=O)N[C@@H](CCCNC(=N)N)C(=O)NCCCCCC(=O)N[C@@H](C)C(=O)N[C@@H](CC(C)C)C(=O)N[C@@H](C)C(=O)N2CCC[C@H]2C(=O)N[C@@H](Cc2ccc(O)cc2)C(=O)N[C@H](C(=O)N2CCC[C@H]2C(N)=O)[C@@H](C)CC)C(C)C)C(C)C)NC(=O)[C@H](CC(=O)O)NC(=O)[C@H](CC(C)C)NC1=O", "note": "[xStAx-VHLL] (Ac-RRWPR[S5]ILD[S5]HVRRVWR[Ahx]ALAPYIP-NH2; staple 6-10; N-terminus and C-terminus assumed)", "values": [
      {"measurement": "β-catenin protein level in C-08 organoids", "setting": "[1]; 2 days (48 h), immunoblot", "value": "reduced the β-catenin protein level"},
      {"measurement": "survival of C-11 organoids", "setting": "[1]; 4 days", "value": "insensitive to xStAx-VHLL"},
      {"measurement": "patient-derived organoids whose survival was potently inhibited", "setting": "[1]; 4 days, 12 CRC samples C-01 to C-12", "value": "11/12"},
      {"measurement": "survival of C-08 and C-05 organoids", "setting": "[1]; 4 days, compared with DMSO control", "value": "strong inhibition function"},
      {"measurement": "subcutaneous tumor size and weight", "setting": "[2]; 3 × 10^6 LoVo cells pretreated with 50 μM peptide for 24 h, s.c. injection, 3 weeks, n = 10 mice per group", "value": "significantly smaller in size and weight"},
      {"measurement": "β-catenin protein level in tumor extracts", "setting": "[2]; tumors from pretreated LoVo cells, immunoblot, compared with other groups", "value": "apparently decreased"},
      {"measurement": "Wnt target genes Axin2, Cyclin D1 and Myc in tumors", "setting": "[2]; tumors from pretreated LoVo cells, qPCR", "value": "also decreased"},
      {"measurement": "Wnt signaling target genes Lgr5, Axin2, Cyclin D1 and Myc", "setting": "[3]; 3 h, qPCR", "value": "remarkably decreased"},
      {"measurement": "cleaved caspase 3 level", "setting": "[3]; 24 h, immunoblot", "value": "increased the cleaved caspase 3 level"},
      {"measurement": "β-catenin protein level", "setting": "[3]; 24 h, immunoblot", "value": "reduced the β-catenin protein level"},
      {"measurement": "organoid survival and bud formation", "setting": "[3]; 4 days", "value": "obviously impeded organoid survival and bud formation"},
      {"measurement": "Lgr5+ intestinal stem cells", "setting": "[3]; [7]", "value": "reduced"},
      {"measurement": "viable cell population", "setting": "[3]; [7]", "value": "also decreased"},
      {"measurement": "dose dependence of β-catenin degradation", "setting": "[4]; CRC cells (HCT116, LoVo, SW480), indicated concentrations, 24 h", "value": "dose-dependent manner"},
      {"measurement": "β-catenin level after wash-out of the peptide", "setting": "[4]; HCT116, 50 μM peptide 24 h, then fresh medium 24 or 48 h", "value": "remained low after 24 h"},
      {"measurement": "β-catenin degradation in colorectal cancer cells", "setting": "[4]; HCT116, SW480 or LoVo, 50 μM peptides, 24 h, immunoblot", "value": "promotes the degradation of β-catenin"},
      {"measurement": "β-catenin protein level, MSAB versus xStAx-VHLL", "setting": "[4]; HCT116 and SW480, 10 μM MSAB, 24 h", "value": "decreased β-catenin protein to a comparable level"},
      {"measurement": "β-catenin protein level, MSAB versus xStAx-VHLL", "setting": "[4]; LoVo, 10 μM MSAB, 24 h", "value": "able to reduce the β-catenin protein level"},
      {"measurement": "proliferation of LoVo cells", "setting": "[5]; 50 μM peptides, cell number counted each day", "value": "significantly attenuated the proliferation"},
      {"measurement": "proliferation of LoVo cells, MSAB versus xStAx-VHLL", "setting": "[5]; 1 × 10^4 cells, 10 μM MSAB or 50 μM xStAx-VHLL", "value": "hampered by xStAx-VHLL"},
      {"measurement": "APC^−/− organoid survival, MSAB versus xStAx-VHLL", "setting": "[6]; 10 μM MSAB or 50 μM xStAx-VHLL, 4 days", "value": "strong inhibition"},
      {"measurement": "growth of APC^−/− organoids", "setting": "[6]; 50 μM peptide, 4 days", "value": "significantly impeded the growth"},
      {"measurement": "cleaved caspase 3", "setting": "[6]; [8]", "value": "increased"},
      {"measurement": "β-catenin protein level", "setting": "[6]; [8]", "value": "greatly decreased"},
      {"measurement": "expression of Wnt target genes Axin2, Cyclin D1 and Myc", "setting": "[6]; qPCR", "value": "downregulated"}
    ]}
  ]
}
